How the values were obtained:
Mu-type opioid receptor = Mu-type opioid receptor (Cavia porcellus, UniProt P97266); experiment: Tested for inhibitory effect on binding of [3H]DAMGO to opioid receptor mu in guinea pig cerebellum membranes; format: cell membranes, Membrane
[1] = molecular target: Kappa-type opioid receptor (Cavia porcellus, UniProt P41144); experiment: Tested for inhibitory effect on binding of [3H]bremazocine to opioid receptor kappa in guinea pig cerebellum membranes; format: cell membranes, Membrane
Sequence of Kappa-type opioid receptor (P41144 whole entry): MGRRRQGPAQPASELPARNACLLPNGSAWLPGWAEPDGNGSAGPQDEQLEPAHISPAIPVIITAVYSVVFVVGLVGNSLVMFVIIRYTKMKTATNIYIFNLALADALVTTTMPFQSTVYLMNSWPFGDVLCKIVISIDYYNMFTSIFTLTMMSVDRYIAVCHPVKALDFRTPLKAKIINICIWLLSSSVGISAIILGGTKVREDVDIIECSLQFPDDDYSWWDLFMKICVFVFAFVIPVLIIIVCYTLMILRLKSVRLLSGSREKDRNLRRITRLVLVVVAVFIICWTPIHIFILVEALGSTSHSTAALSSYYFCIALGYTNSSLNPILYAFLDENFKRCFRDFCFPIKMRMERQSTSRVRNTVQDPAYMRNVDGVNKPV

[2] = molecular target: Opioid receptors; mu/kappa/delta (Homo sapiens, UniProt P41145+P41143+P35372); experiment: Tested for opioid receptor agonistic activity in guinea pig ileum; format: functional, tissue-based, Cavia porcellus; conditions: target entry is the homologue from another species
Cavia porcellus = organism: Cavia porcellus; experiment: Tested for naloxone pA2 activity in guinea pig ileum; format: functional

Sequence of Mu-type opioid receptor (P97266 whole entry): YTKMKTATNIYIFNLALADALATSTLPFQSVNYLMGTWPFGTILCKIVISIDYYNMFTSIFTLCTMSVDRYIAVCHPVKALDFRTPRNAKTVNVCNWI

C=CCN(CC=C)[C@@H](Cc1ccc(O)cc1)C(=O)NCC(=O)NCC(=O)N[C@@H](Cc1ccccc1)C(=O)N[C@@H](CC(C)C)C(=O)N[C@@H](CCCN=C(N)N)C(=O)N[C@@H](CCCN=C(N)N)C(=O)N[C@H](C(=O)N[C@@H](CCCN=C(N)N)C(=O)N1CCC[C@@H]1C(=O)N[C@@H](CCCCN)C(=O)O)[C@@H](C)CC
Ki (Mu-type opioid receptor): 31.7 nM
Ki [1]: 3.6 nM
IC50 [2]: 687 nM

C=CCN[C@@H](Cc1ccc(O)cc1)C(=O)NCC(=O)NCC(=O)N[C@@H](Cc1ccccc1)C(=O)N[C@@H](CC(C)C)C(=O)N[C@@H](CCCN=C(N)N)C(=O)N[C@@H](CCCN=C(N)N)C(=O)N[C@H](C(=O)N[C@@H](CCCN=C(N)N)C(=O)N1CCC[C@@H]1C(=O)N[C@@H](CCCCN)C(=O)O)[C@@H](C)CC
Activity (Cavia porcellus): 7.6

CN1CC[C@]23c4c5ccc(O)c4O[C@H]2[C@@H](O)C=C[C@H]3[C@H]1C5 [MORPHINE]
Activity (Cavia porcellus): 8.2

CC[C@H](C)[C@H](NC(=O)[C@H](CCCN=C(N)N)NC(=O)[C@H](CCCN=C(N)N)NC(=O)[C@H](CC(C)C)NC(=O)[C@H](Cc1ccccc1)NC(=O)CNC(=O)CNC(=O)[C@@H](N)Cc1ccc(O)cc1)C(=O)N[C@@H](CCCN=C(N)N)C(=O)N1CCC[C@@H]1C(=O)N[C@@H](CCCCN)C(=O)O
Activity (Cavia porcellus): 7.2

CC[C@H](C)[C@H](NC(=O)[C@H](CCCN=C(N)N)NC(=O)[C@H](CCCN=C(N)N)NC(=O)[C@H](CC(C)C)NC(=O)[C@H](Cc1ccccc1)NC(=O)CNC(=O)CNC(=O)[C@H](Cc1ccc(O)cc1)NCC1CC1)C(=O)N[C@@H](CCCN=C(N)N)C(=O)N1CCC[C@@H]1C(=O)N[C@@H](CCCCN)C(=O)O
Activity (Cavia porcellus): 7.3
Ki (Mu-type opioid receptor): 9.6 nM
Ki [1]: 0.02 nM
IC50 [2]: 2.16 nM

— ChEMBL document CHEMBL1126112 (J Med Chem, 1992)
